In patent US20100256069A1, “TARGETED INDUCTION OF AGGREGATION OF PROTEINS WITH CROSS BETA STRUCTURES” (VIB VZM, priority 2007, published 2010):
The star is where a group is joined. Biotin = O=C1N[C@H]2[C@H](CS[C@H]2CCCCC(=O)*)N1

Target: streptavidin-HRP fusion protein (Streptomyces avidinii, UniProt P22629)
Experiment: Depletion of streptavidin-HRP from solution by co-aggregation (residual HRP activity in supernatant, TMB readout)
Settings: aggregator 1 μM, streptavidin-HRP diluted 1:20,000 in PBS, overnight, room temperature, 750 rpm; FIG. 1
Description: In order to show depletion between the fusion protein HRP-streptavidin from solution due to co-aggregation with the aggregator, we co-incubated the aggregator with the streptavidin-HRP fusion protein. […] To this end, a streptavidin-HRP stock solution (AbD Serotec, product number 710005) was diluted 1:20,000 in PBS and incubated with the aggregator at a final concentration of 1 μM. The samples were incubated overnight with agitation at 750 rpm at room temperature. A control sample consisting of the fusion protein SA-HRP alone in identical buffer (PBS plus 10% DMSO) was included. […] After overnight incubation, co-aggregated material was removed from the sample by centrifugation for 15 min at 17,000 g in a cooled bench top microfuge at 10° C. Of the supernatant, 10 μL was recovered and added in a 96 well plate (Falcon, 353072) to 90 μL of TMB solution. This mixture was incubated at room temperature for 1 minute, after which the colorimetric reaction was arrested by the addition of 100 μL of 2 M H2SO4. The absorbance of the resulting yellow product was measured at OD450nm using an Ultra Microplate Reader (BioTEK, ELx808IU).

Sequence of streptavidin-HRP fusion protein (P22629 25-183): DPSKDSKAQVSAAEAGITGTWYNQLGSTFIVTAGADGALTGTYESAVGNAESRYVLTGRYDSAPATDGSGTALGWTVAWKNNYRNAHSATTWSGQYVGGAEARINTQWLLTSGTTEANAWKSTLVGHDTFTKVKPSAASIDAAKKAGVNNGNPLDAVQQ
Sequence of streptavidin-HRP fusion protein (P00433 31-338, further chain): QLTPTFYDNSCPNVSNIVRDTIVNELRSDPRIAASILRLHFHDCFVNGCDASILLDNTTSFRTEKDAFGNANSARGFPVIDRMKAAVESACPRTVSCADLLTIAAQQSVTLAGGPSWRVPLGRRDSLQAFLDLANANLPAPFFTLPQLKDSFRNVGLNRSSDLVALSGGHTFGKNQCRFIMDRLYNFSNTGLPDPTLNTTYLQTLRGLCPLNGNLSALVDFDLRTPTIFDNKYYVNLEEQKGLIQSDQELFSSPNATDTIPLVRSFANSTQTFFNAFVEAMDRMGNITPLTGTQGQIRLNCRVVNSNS

## Biotin-ALAVVLQ-NH2
  residual percentage HRP activity in the supernatant after removal of the co-aggregates by centrifugation: clearly removes the enzyme from the soluble fraction
